The source made the active and inactive calls.
Experiments:
[1] = target: T1, Alkaline phosphatase, tissue-nonspecific isozyme (Homo sapiens, UniProt P05186)
T1 sequence (P05186 whole entry): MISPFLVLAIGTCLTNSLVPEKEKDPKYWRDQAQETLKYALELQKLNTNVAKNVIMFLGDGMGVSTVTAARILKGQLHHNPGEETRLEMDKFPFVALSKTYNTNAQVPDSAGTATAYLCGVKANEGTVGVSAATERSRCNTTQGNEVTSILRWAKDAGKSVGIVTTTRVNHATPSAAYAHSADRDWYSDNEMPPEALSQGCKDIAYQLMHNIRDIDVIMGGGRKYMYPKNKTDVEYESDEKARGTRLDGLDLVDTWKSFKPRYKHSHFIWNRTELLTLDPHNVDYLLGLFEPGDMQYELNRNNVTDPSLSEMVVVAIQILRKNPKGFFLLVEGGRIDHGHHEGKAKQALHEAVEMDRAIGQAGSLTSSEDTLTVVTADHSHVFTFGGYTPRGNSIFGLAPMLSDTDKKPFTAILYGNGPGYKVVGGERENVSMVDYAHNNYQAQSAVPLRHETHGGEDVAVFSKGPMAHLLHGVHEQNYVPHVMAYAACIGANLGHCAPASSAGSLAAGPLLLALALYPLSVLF

[2] = target: Aspartyl aminopeptidase (Plasmodium falciparum 3D7, UniProt Q8I2J3)
Sequence of Aspartyl aminopeptidase (Q8I2J3 whole entry): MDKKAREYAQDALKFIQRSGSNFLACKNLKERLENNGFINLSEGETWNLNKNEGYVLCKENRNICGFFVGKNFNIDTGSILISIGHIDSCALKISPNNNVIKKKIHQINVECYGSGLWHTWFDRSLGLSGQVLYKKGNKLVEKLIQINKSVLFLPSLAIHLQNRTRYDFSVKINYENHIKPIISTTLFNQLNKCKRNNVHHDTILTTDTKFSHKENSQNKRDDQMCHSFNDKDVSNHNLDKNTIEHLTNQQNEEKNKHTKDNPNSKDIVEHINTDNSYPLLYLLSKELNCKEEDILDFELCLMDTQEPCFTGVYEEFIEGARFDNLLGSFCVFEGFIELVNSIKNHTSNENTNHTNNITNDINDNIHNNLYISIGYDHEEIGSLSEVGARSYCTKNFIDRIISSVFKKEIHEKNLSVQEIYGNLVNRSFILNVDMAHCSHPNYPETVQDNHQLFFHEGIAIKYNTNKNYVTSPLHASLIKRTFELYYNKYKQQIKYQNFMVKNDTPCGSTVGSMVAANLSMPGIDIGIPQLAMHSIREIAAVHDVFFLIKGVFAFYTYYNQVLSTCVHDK

[3] = target: Procathepsin L (Homo sapiens, UniProt P07711)
Sequence of Procathepsin L (P07711 whole entry): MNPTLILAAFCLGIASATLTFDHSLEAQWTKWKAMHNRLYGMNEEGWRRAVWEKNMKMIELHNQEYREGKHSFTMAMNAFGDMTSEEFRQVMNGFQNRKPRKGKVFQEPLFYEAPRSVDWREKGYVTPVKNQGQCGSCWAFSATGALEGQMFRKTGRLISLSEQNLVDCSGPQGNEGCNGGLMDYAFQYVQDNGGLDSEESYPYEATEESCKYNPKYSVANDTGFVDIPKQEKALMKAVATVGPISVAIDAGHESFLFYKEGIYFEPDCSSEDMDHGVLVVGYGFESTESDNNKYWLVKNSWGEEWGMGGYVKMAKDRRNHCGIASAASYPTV

[4] = target: Voltage-dependent T-type calcium channel subunit alpha-1H (Homo sapiens, UniProt O95180); type: functional;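 also: channel activity triggered by adding a high calcium stimulation buffer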
[5] = target: Ion channel NompC (Danio rerio, UniProt Q7T1G6); experiment: Fluorescence counterscreen assay for TRPML3 agonists: dose response cell-based high-throughput screening assay to identify agonists of the transient receptor potential channel N1 (TRPN1). [Related pubchem assays: 1526, 1424, 1448 ]; type: functional
Sequence of Ion channel NompC (Q7T1G6 whole entry): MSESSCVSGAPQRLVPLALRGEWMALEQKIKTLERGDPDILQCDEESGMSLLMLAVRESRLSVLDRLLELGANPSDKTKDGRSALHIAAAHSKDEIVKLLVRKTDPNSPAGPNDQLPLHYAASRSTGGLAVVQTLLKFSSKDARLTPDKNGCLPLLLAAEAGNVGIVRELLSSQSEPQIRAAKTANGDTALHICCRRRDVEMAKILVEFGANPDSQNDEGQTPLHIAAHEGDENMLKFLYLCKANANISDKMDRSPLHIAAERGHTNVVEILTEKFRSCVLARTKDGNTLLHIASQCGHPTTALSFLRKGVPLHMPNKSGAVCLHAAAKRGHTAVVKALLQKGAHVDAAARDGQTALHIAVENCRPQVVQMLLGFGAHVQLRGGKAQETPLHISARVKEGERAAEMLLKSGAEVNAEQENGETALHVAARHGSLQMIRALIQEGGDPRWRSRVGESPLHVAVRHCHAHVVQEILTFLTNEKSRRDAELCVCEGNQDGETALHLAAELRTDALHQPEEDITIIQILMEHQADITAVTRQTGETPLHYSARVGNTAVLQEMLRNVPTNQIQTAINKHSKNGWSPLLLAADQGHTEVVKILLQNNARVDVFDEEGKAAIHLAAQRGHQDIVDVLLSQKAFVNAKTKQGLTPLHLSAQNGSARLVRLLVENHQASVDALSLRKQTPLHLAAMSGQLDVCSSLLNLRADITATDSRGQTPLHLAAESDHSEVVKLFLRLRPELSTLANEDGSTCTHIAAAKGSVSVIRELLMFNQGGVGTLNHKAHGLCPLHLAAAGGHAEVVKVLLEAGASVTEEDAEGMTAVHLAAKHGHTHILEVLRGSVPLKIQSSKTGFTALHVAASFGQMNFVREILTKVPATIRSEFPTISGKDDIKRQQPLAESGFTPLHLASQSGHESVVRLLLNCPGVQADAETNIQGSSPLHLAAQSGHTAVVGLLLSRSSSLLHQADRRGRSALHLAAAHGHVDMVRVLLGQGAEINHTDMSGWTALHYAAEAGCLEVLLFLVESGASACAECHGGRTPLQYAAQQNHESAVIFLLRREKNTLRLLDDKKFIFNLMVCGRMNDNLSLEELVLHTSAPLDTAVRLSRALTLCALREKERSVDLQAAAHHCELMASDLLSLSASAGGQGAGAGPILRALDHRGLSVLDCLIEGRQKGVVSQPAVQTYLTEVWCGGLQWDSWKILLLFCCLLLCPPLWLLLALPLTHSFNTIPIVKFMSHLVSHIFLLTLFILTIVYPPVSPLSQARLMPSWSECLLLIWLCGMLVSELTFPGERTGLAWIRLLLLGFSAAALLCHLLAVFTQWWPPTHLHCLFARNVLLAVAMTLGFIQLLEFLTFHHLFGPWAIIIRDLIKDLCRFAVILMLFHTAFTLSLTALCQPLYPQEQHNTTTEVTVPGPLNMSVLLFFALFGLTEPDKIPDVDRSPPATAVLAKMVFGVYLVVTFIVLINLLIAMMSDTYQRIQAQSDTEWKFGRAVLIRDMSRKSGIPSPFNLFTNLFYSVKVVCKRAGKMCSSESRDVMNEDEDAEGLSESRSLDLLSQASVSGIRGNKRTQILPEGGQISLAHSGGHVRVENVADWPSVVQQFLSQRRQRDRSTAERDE

[6] = target: T2, Mucolipin-3 (Homo sapiens, UniProt Q8TDD5); experiment: Dose response cell-based high-throughput screening assay for agonists of the transient receptor potential channel ML3 (TRPML3). [Related pubchem assays: 1526, 1424, 1448 ]; type: functional
T2 sequence (Q8TDD5 whole entry): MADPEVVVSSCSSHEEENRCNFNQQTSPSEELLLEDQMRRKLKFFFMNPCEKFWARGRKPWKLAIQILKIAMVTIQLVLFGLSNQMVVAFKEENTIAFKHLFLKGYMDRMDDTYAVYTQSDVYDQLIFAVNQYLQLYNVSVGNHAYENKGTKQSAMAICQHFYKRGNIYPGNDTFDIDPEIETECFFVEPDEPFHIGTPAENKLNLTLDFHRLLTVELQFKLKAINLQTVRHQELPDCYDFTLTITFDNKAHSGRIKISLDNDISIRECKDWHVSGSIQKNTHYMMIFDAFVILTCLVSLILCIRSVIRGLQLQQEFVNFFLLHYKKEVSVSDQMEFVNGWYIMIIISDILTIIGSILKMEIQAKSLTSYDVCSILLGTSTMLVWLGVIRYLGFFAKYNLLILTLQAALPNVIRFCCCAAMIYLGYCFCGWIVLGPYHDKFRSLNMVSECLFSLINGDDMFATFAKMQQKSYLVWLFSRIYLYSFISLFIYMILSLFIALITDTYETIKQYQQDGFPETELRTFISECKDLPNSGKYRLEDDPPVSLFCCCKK

[7] = A cytotoxicity screen of small molecule inhibitors of the PhoP region in Salmonella typhi identified in the primary screen. [Related pubchem assays: 1850, 1864, 1985 ]; type: functional
[8] = test system: Escherichia coli; experiment: microbe, parasite or virus in culture
[9] = fluconazole-exposed Candida albicans growth modulators – fluorescence, retest, confirmation (AID 2467); type: functional, cell-based
[10] = target: Sphingosine 1-phosphate receptor 1 (Homo sapiens, UniProt P21453); type: functional;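 also: Tango beta-arrestin reporter U2OS cells stimulated with S1P near its EC80; inhibitor potency meaning antagonism of receptor activation by the natural agonist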
Sequence of Sphingosine 1-phosphate receptor 1 (P21453 whole entry): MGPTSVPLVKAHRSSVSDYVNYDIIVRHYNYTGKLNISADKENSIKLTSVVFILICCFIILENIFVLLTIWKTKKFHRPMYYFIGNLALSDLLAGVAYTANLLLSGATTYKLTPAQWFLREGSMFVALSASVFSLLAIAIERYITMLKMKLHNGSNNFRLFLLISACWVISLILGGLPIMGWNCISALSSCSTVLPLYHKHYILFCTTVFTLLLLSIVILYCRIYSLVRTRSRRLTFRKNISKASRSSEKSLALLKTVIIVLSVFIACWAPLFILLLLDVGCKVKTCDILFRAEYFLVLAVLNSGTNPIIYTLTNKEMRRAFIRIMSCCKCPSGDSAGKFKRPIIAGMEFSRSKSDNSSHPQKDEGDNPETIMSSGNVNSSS

[11] = target: T3, Heat shock factor protein 1 (Mus musculus, UniProt P38532); experiment: enhancement of HSF1-driven luciferase signal – cell-based, NIH3T3, luminescence, dose retest, confirmation (AID 435004); type: functional;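 also: stress induced by proteasome inhibitor MG132 added 30 min after compound; luciferase reporter driven by HSF1 response element in NIH3T3 cells; actives raise luminescence as potentiators of the MG132 stress response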
T3 sequence (P38532 whole entry): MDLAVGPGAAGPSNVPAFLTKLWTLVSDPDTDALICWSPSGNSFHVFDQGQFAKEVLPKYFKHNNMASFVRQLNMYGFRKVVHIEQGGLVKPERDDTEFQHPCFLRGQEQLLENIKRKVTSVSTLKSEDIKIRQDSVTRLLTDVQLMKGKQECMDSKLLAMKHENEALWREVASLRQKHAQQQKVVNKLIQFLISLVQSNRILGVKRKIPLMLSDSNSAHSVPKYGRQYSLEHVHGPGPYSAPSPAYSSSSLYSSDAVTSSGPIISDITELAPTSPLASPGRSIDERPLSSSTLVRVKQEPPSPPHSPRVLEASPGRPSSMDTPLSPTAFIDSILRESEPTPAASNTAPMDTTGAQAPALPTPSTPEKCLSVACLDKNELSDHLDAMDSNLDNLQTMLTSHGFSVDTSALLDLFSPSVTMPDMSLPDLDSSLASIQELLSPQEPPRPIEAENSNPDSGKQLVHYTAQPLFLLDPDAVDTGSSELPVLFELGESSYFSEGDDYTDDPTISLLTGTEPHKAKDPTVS

[12] = target: T4, Replicative DNA helicase DnaB (Mycobacterium tuberculosis, UniProt P9WMR3); experiment: DnaB intein splicing inhibitors, dose response, biochemical, cell-free fluorescence (AID 449749); type: functional
T4 sequence (P9WMR3 whole entry): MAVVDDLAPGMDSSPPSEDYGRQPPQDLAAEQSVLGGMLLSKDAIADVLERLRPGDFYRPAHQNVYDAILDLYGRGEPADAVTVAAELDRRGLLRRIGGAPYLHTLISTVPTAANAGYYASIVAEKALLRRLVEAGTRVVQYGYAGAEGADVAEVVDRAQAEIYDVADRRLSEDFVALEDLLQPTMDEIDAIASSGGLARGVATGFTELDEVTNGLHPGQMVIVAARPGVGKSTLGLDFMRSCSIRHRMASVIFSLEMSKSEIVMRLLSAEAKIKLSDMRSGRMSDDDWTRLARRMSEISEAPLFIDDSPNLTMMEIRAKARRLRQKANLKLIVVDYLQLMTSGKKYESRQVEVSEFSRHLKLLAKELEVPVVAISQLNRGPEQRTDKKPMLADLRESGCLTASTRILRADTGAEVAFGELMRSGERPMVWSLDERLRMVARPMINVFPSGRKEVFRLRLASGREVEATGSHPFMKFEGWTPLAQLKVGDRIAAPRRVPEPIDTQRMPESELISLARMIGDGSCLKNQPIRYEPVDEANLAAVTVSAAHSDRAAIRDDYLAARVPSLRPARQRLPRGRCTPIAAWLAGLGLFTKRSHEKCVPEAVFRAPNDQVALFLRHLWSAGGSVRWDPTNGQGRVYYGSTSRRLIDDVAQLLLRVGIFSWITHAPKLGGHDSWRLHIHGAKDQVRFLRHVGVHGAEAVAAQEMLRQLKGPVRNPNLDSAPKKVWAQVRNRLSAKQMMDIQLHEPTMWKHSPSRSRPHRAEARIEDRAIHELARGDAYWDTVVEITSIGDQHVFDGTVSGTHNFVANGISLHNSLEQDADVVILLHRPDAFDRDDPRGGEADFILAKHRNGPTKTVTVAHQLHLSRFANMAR

[13] = NIH-3T3 fibroblast cytotoxicity, dose response, cytotoxicity control, cell-based, fluorescence, Alamar Blue, secondary assay (AID 2327); type: functional;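 also: NIH-3T3 mouse fibroblasts cultured with fluconazole at 8 µg/mL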
[14] = target: T5, Sphingosine 1-phosphate receptor 4 (Homo sapiens, UniProt O95977); experiment: Fluorescence dose response cell-based high throughput screening assay for antagonists of the Sphingosine 1-Phosphate Receptor 4 (S1P4). [Related pubchem assays: 1524 (Confirmation in triplicates.), 1510 (Primary screen.)]; type: functional
T5 sequence (O95977 whole entry): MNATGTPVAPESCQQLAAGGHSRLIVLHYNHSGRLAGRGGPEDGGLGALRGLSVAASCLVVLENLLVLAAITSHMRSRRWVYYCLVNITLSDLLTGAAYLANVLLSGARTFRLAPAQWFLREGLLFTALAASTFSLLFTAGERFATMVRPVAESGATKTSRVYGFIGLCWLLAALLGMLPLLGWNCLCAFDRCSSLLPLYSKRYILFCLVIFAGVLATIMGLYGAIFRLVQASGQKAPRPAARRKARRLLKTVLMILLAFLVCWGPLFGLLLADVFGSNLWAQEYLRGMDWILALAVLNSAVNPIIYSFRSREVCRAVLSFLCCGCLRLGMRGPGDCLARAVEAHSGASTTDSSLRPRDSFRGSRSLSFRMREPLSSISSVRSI

[15] = target: T6, Protein RecA (Mycobacterium tuberculosis, UniProt P9WHJ3); experiment: Fluorescence Cell-Free Homogeneous Dose Retest to Identify Inhibitors of RecA-Intein Splicing Activity. [Related pubchem assays (depositor defined):AID2097, AID2223, AID489010, AID492950]; type: functional
T6 sequence (P9WHJ3 whole entry): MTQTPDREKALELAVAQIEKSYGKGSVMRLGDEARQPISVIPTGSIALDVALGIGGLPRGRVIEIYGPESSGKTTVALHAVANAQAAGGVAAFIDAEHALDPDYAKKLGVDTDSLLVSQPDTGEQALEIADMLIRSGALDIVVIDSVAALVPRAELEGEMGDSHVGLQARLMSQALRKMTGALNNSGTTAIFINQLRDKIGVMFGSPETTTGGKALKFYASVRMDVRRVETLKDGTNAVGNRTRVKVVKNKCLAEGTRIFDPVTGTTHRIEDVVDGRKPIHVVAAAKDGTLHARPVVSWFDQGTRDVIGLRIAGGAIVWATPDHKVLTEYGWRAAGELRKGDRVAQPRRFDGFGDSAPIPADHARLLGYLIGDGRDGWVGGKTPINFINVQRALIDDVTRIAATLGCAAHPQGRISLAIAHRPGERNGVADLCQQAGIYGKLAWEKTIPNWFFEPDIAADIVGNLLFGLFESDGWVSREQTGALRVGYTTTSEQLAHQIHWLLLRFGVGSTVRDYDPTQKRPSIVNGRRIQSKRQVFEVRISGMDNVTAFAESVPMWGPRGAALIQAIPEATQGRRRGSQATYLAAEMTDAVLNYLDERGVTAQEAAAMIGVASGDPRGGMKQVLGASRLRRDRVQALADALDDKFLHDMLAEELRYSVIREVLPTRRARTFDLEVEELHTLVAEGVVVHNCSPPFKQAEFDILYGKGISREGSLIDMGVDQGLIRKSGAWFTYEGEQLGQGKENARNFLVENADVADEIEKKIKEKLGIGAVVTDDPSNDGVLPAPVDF

[16] = target: Lysosomal acid glucosylceramidase (Homo sapiens, UniProt P04062); experiment: Dose response cell-based high throughput screening assay to identify enhancers of beta-glucosidase activity. [Related pubchem assays: 784 ]; type: functional
Sequence of Lysosomal acid glucosylceramidase (P04062 whole entry): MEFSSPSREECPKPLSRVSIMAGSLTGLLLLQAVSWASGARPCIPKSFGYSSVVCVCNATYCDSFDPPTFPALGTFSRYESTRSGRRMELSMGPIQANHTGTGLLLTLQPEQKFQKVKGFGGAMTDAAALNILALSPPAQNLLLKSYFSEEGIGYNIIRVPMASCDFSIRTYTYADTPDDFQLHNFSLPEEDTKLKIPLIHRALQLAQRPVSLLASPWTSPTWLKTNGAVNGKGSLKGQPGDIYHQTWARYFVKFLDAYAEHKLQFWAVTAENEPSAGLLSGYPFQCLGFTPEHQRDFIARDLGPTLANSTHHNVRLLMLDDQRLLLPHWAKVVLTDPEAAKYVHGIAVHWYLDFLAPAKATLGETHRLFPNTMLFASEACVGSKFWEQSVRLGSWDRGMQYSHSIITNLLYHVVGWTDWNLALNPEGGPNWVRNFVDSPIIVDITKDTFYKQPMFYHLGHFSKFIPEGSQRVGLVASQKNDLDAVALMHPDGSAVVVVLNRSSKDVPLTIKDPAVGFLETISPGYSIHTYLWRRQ

[17] = target: Nonstructural protein 1 (Influenza A virus, UniProt Q194T2); type: functional, Influenza A virus (A/California/07/2009(H1N1))
Sequence of Nonstructural protein 1 (Q194T2 whole entry, the tested form may be a part): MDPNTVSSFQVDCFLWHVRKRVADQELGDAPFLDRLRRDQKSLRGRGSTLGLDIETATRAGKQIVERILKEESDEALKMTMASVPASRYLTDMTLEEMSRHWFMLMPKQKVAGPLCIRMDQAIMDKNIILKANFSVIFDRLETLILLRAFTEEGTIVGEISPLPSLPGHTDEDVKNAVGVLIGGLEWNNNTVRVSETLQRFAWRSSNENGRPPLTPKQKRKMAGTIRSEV

[18] = target: T7, Carboxy-terminal domain RNA polymerase II polypeptide A small phosphatase 1 (Homo sapiens, UniProt Q9GZU7); experiment: CTDSP1 inhibitors, concentration-response, biochemical, absorbance readout, ultra-high-throughput screen actives (AID 540297); type: functional
T7 sequence (Q9GZU7 whole entry): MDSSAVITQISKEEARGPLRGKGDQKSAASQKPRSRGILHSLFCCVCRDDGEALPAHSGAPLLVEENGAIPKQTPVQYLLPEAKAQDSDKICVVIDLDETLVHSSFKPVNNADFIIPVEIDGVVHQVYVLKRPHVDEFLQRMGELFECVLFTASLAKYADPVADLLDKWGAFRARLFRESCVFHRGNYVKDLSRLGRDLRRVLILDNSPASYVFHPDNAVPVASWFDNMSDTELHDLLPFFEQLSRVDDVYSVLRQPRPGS

[19] = target: Aminopeptidase N (Plasmodium falciparum FcB1/Columbia, UniProt O96935); experiment: malaria alanyl aminopeptidase activity blockers – biochemical, fluorogenic H-Leu-NHMec substrate, 1536-well (AID 1445); design: species or system Plasmodium falciparum 3D7, 3D7
Sequence of Aminopeptidase N (O96935 whole entry): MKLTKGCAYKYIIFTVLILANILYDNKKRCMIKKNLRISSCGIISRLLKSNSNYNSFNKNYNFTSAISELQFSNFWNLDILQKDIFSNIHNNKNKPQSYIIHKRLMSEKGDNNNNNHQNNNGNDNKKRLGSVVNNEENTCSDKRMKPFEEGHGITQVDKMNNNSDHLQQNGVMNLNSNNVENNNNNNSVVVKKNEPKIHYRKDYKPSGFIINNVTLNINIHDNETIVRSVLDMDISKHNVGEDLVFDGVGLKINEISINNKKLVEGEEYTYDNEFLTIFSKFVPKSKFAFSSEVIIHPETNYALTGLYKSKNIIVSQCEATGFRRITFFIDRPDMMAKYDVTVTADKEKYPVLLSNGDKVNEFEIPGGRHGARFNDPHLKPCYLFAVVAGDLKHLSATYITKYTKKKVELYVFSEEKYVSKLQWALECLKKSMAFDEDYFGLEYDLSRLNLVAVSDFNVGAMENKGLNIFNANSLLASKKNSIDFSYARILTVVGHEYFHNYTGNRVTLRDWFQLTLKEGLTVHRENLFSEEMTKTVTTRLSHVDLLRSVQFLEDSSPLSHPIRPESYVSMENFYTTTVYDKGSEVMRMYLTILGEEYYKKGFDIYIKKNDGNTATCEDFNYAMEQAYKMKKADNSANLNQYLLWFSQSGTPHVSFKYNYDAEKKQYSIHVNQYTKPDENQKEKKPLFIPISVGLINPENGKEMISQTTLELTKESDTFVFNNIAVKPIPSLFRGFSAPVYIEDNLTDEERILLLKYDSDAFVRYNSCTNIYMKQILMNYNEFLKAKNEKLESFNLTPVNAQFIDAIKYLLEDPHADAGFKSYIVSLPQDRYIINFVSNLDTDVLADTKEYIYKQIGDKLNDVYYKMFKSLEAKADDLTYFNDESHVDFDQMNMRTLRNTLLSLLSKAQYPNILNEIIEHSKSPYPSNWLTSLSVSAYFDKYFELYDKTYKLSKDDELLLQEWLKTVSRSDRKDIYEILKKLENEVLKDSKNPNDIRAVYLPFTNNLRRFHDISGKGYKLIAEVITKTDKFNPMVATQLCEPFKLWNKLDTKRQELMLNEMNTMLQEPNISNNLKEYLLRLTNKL

Compound: CCCCN1CC(=O)C(c2nc3ccccc3[nH]2)=C1N
- EC50 [1]: > 100 µM (not active)

Compound: O=c1[nH]c(CSc2nnc[nH]2)nc2ccccc12
- IC50 [2]: 833 nM (active)
- IC50 [3]: > 59.6 µM (not active)

Compound: Cc1ccc(S(=O)(=O)c2c(C)cc(C)nc2Oc2cccc(C(F)(F)F)c2)cc1
- EC50 [4]: 7.06 µM (active)
- EC50 [5]: > 29.9 µM (not active)
- EC50 [6]: 5.23 µM (active)

Compound: CCn1cc(C(=O)O)c(=O)c2cc(F)c(N3CCNCC3)cc21 [NORFLOXACIN]
- EC50 [7]: > 50 µM (active)
- AC50 [8]: 1.33 µM (active)

Compound: COc1cccc(-n2nnnc2S(C)(=O)=O)c1
- EC50 [9]: 1.76 µM (active)
- IC50 [10]: 23.6 µM (not active)
- EC50 [11]: 6.59 µM (active)
- AC50 [12]: 3.14 µM (active)
- EC50 [13]: 3.96 µM (inconclusive)
- IC50 [14]: 1.26 µM (active)
- EC50 [15]: 1.1 µM (active)

Compound: COc1ccc(S(=O)(=O)N2CCCCCC2)cc1N(C)S(=O)(=O)c1ccc(C)cc1
- EC50 [5]: > 29.9 µM (not active)
- EC50 [6]: 6.7 µM (active)

Compound: O=C(/C=C(\O)c1ccccc1)C(=O)NNC(=O)c1ccccc1
- EC50 [7]: > 50 µM (active)

Compound: COCCn1c(N/N=C(C)/C=C/c2ccccc2)nc2c1c(=O)[nH]c(=O)n2C
- EC50 [1]: > 100 µM (not active)

Compound: CCCCOc1nc2ccccc2nc1C(C#N)S(=O)(=O)c1ccccc1 (stereo unspecified)
- EC50 [16]: > 50 µM (not active)

Compound: O=C1Nn2c(nc3c(c2=O)CCC3)/C1=N/Nc1cccc(Cl)c1
- IC50 [17]: > 100 µM (active)
- IC50 [18]: 6.15 µM (active)
- IC50 [19]: 83.9 µM (active)

Compound: COc1ccc(S(=O)(=O)C(C#N)c2nc3ccccc3nc2N2CCCCC2)cc1 (stereo unspecified)
- EC50 [16]: > 50 µM (not active)

Compound: COC(=O)CN(n1cnnc1)S(=O)(=O)c1ccc(C)cc1
- IC50 [2]: 351 nM (active)
- IC50 [3]: > 59.6 µM (not active)

From ChEMBL document CHEMBL1201862, “PubChem BioAssay data set” (2004)
